Data reported in patent US5616320A, “Use of antibiotics 10381b to promote growth” (The Upjohn Company, priority 1994, dated 1997).

What was measured:
Solubility = format: physicochemical
Streptococcus pneumoniae = assay: Antibacterial spectrum, disc zone of inhibition; format: cell-based; parameters: key: hazy; vl: very light; trace; details: UC 9207; 1/4 inch discs, 20 μl
Description: (§1) ^1 Assays marked * used 1/4 inch (6.35 mm) discs and 20 μl
(§2) All other assays used 1/2 inch (12.7 mm) discs and 80 μl samples.
(§3) h = hazy; vl = very light; tr = trace. Assay procedures are described in
(§4) Hanka, L. J., M. R. Burch and W. T. Sokolski. Psicofuranine. IV.
(§5) Microbiological assay. Antibiot. and Chemoth. 9:432-435 (1959).

Neisseria gonorrhoeae = assay: Antibacterial spectrum, disc zone of inhibition; format: cell-based; parameters: key: hazy; vl: very light; trace; details: UC 3065; 1/4 inch discs, 20 μl
Description: as §1, §2, §3, §4, §5

[1] = test system: Staphylococcus epidermidis; assay: Antibacterial spectrum, disc zone of inhibition; format: cell-based; parameters: key: hazy; vl: very light; trace; details: UC 719; 1/4 inch discs, 20 μl
Description: as §1, §2, §3, §4, §5

yeasts and fungi = assay: Growth inhibition (statement in words); format: cell-based
[2] = test system: Gram-positive bacteria, yeasts, and fungi; assay: In vitro antimicrobial activity (statement in words); format: cell-based
Saccharomyces cerevisiae = assay: Antibacterial spectrum, disc zone of inhibition; format: cell-based; details: UC 1342
Description: as §1, §2, §3, §4, §5

Bacillus subtilis = assay: Antibacterial spectrum, disc zone of inhibition; format: cell-based; details: UC 564; 1/2 inch discs, 80 μl
Description: as §1, §2, §3, §4, §5

Staphylococcus aureus = assay: Antibacterial spectrum, disc zone of inhibition; format: cell-based
Description: as §1, §2, §3, §4, §5

Klebsiella pneumoniae = assay: Antibacterial spectrum, disc zone of inhibition; format: cell-based; details: UC 57; 1/2 inch discs, 80 μl
Description: as §1, §2, §3, §4, §5

Pseudomonas aeruginosa = assay: Antibacterial spectrum, disc zone of inhibition; format: cell-based; details: UC 95; 1/2 inch discs, 80 μl
Description: as §1, §2, §3, §4, §5

Clostridium perfrigens = assay: Antibacterial spectrum, disc zone of inhibition; format: cell-based; details: UC 6509; 1/2 inch discs, 80 μl
Description: as §1, §2, §3, §4, §5

Micrococcus luteus = assay: Antibacterial spectrum, disc zone of inhibition; format: cell-based; details: 1/2 inch discs, 80 μl
Description: as §1, §2, §3, §4, §5

[3] = test system: Bordetella bronchiseptica; assay: Antibacterial spectrum, disc zone of inhibition; format: cell-based; details: UC 6481; 1/2 inch discs, 80 μl
Description: as §1, §2, §3, §4, §5

Serratia marcescens = assay: Antibacterial spectrum, disc zone of inhibition; format: cell-based; details: UC 6888; 1/4 inch discs, 20 μl
Description: as §1, §2, §3, §4, §5

Proteus vulgaris = assay: Antibacterial spectrum, disc zone of inhibition; format: cell-based; details: UC 93; 1/2 inch discs, 80 μl
Description: as §1, §2, §3, §4, §5

Candida albicans = assay: Antibacterial spectrum, disc zone of inhibition; format: cell-based; details: UC 1392
Description: as §1, §2, §3, §4, §5

Hemophilus influenzae = assay: Antibacterial spectrum, disc zone of inhibition; format: cell-based; details: UC 6483; 1/4 inch discs, 20 μl
Description: as §1, §2, §3, §4, §5

Bacteroides fragilis = assay: Antibacterial spectrum, disc zone of inhibition; format: cell-based; details: UC 6513; 1/2 inch discs, 80 μl
Description: as §1, §2, §3, §4, §5

Streptococcus pyogenes = assay: Antibacterial spectrum, disc zone of inhibition; format: cell-based; details: UC 152
Description: as §1, §2, §3, §4, §5

Streptococcus faecalis = assay: Antibacterial spectrum, disc zone of inhibition; format: cell-based
Description: as §1, §2, §3, §4, §5

[4] = test system: Rhodopseudomonas sphaeroides; assay: Antibacterial spectrum, disc zone of inhibition; format: cell-based; details: UC 3238; 1/2 inch discs, 80 μl
Description: as §1, §2, §3, §4, §5

Escherichia coli = assay: Antibacterial spectrum, disc zone of inhibition; format: cell-based; details: UC 51; 1/2 inch discs, 80 μl
Description: as §1, §2, §3, §4, §5

Mycobacterium avium = assay: Antibacterial spectrum, disc zone of inhibition; format: cell-based; details: UC 159; 1/2 inch discs, 80 μl
Description: as §1, §2, §3, §4, §5

Pasteurella hemolytica = assay: Antibacterial spectrum, disc zone of inhibition; format: cell-based; details: UC 6531; 1/2 inch discs, 80 μl
Description: as §1, §2, §3, §4, §5

[5] = test system: Salmonella schottmuelleri; assay: Antibacterial spectrum, disc zone of inhibition; format: cell-based; details: UC 126; 1/2 inch discs, 80 μl
Description: as §1, §2, §3, §4, §5

Penicillium oxalicum = assay: Antibacterial spectrum, disc zone of inhibition; format: cell-based; details: UC 1268
Description: as §1, §2, §3, §4, §5

Toxicity = assay: Toxicity; parameters: species or system mammals

For `CC(CCN(C)C(=N)N)C(N)C(=O)NC1C=CC(n2ccc(N)nc2=O)OC1C(=O)O` (centres unmarked) [Antibiotic 10381a1], the Solubility (Solubility; acetone, ethyl acetate, ether and chlorinated or saturated hydrocarbon solvents) was “Insoluble”, the Solubility (Solubility; water and lower alcohols) was “Soluble” and the “Zone of Inhibition” value (Streptococcus pneumoniae) was “tr”. The “Zone of Inhibition” value (Neisseria gonorrhoeae) was “tr”, the “Zone of Inhibition” value [1] was “tr” and the growth inhibitory effect (yeasts and fungi) was “especially strong growth inhibitory effect”. For the same compound, the “antimicrobial activity” value [2] was “broad spectrum antibiotic properties”, the “activity” value (Saccharomyces cerevisiae) was “active” and the “Zone of Inhibition” value (Saccharomyces cerevisiae; 1/2 inch discs, 80 μl) was 31 mm. The “Zone of Inhibition” value (Bacillus subtilis) was 0 mm, the “Zone of Inhibition” value (Staphylococcus aureus; UC 80, 1/2 inch discs, 80 μl) was 16 h and the “Zone of Inhibition” value (Staphylococcus aureus; UC 3665, 1/2 inch discs, 80 μl) was 0 mm. The “Zone of Inhibition” value (Staphylococcus aureus; UC 6685, 1/4 inch discs, 20 μl) was 0 mm, the “Zone of Inhibition” value (Klebsiella pneumoniae) was 0 mm and the “Zone of Inhibition” value (Pseudomonas aeruginosa) was 0 mm. The “Zone of Inhibition” value (Clostridium perfrigens) was 18 mm, the “Zone of Inhibition” value (Micrococcus luteus; UC 130) was 32 mm and the “Zone of Inhibition” value (Micrococcus luteus; UC 3383) was 32 mm. For the same compound, the “Zone of Inhibition” value [3] was 0 mm, the “Zone of Inhibition” value (Serratia marcescens) was 0 mm and the “Zone of Inhibition” value (Proteus vulgaris) was 0 mm. The “activity” value (Candida albicans) was “active”, the “Zone of Inhibition” value (Candida albicans; 1/4 inch discs, 20 μl) was 12 mm and the “Zone of Inhibition” value (Hemophilus influenzae) was 10 mm. The “Zone of Inhibition” value (Bacteroides fragilis) was 21 mm, the “activity” value (Streptococcus pyogenes) was “active” and the “Zone of Inhibition” value (Streptococcus pyogenes; 1/2 inch discs, 80 μl) was 25 mm. The “Zone of Inhibition” value (Streptococcus faecalis; UC 221, 1/4 inch discs, 20 μl) was 10 vl, the “activity” value (Streptococcus faecalis; UC 694) was “active” and the “Zone of Inhibition” value [4] was 33 mm. The “Zone of Inhibition” value (Escherichia coli) was 0 mm, the “Zone of Inhibition” value (Mycobacterium avium) was 17 mm and the “Zone of Inhibition” value (Pasteurella hemolytica) was 0 mm. For the same compound, the “Zone of Inhibition” value [5] was 0 mm, the “activity” value (Penicillium oxalicum) was “active” and the “Zone of Inhibition” value (Penicillium oxalicum; 1/2 inch discs, 80 μl) was 36 mm. For the same compound, the “toxicity relative to blasticidin” value (Toxicity; compared with blasticidin) was “less toxicity than blasticidin” and the toxicity (Toxicity; in mammals / versus prior art antibiotics) was “greatly reduced toxicity”.
